Article PMC11240139, “Exploring the antitumor potential of novel quinoline derivatives via tubulin polymerization inhibition in breast cancer; design, synthesis and molecular docking” (RSC Advances, 2024)

Key:
Experiment in all cases: NCI-60 SRB cytotoxicity screen
Type in all cases: cell-based
OVCAR-5 (ovarian cancer) = settings: Homo sapiens; OVCAR-5, single dose 10 μM; read-out: growth inhibition (GI%)
TK-10 (renal cancer) = settings: Homo sapiens; TK-10, single dose 10 μM; read-out: growth inhibition (GI%)
RXF 393 (renal cancer) = settings: Homo sapiens; RXF 393, single dose 10 μM; read-out: growth inhibition (GI%)
OVCAR-4 (ovarian cancer) = settings: Homo sapiens; OVCAR-4, single dose 10 μM; read-out: growth inhibition (GI%)
SN12C (renal cancer) = settings: Homo sapiens, single dose 10 μM, read-out: growth inhibition (GI%)
CAKI-1 (renal cancer) = settings: Homo sapiens; CAKI-1, single dose 10 μM; read-out: growth inhibition (GI%)
[1] = system: HOP-92 (non-small cell lung cancer); settings: Homo sapiens; HOP-92, single dose 10 μM; read-out: growth inhibition (GI%)
HCC-2998 (colon cancer) = settings: Homo sapiens; HCC-2998, single dose 10 μM; read-out: growth inhibition (GI%)
SF-268 (CNS cancer) = settings: Homo sapiens; SF-268, single dose 10 μM; read-out: growth inhibition (GI%)
HCT-116 (colon cancer) = settings: Homo sapiens; HCT-116, single dose 10 μM; read-out: growth inhibition (GI%)
U251 (CNS cancer) = settings: Homo sapiens, U-251; U251, single dose 10 μM; read-out: growth inhibition (GI%)
SNB-19 (CNS cancer) = settings: Homo sapiens; SNB-19, single dose 10 μM; read-out: growth inhibition (GI%)
SK-MEL-2 (melanoma) = settings: Homo sapiens; SK-MEL-2, single dose 10 μM; read-out: growth inhibition (GI%)
[2] = system: MDA-MB-468 (breast cancer); settings: Homo sapiens; MDA-MB-468, single dose 10 μM; read-out: growth inhibition (GI%)
Description: The cytotoxic activity of the synthesized quinoline derivatives was determined by the national cancer institute (NCI, Bethesda, Maryland, USA) against 60 different cancer cell lines at a single high dose (10^−5 M) in the full NCI 60 cell panel using the sulforhodamine B assay for cell viability evaluation. In summary, 5 × 10^3 cells were in 96-well plate and incubated in complete media for 24 h. Cells were treated with 100 μL of media containing each newly synthesized compound. After drug exposure, cells were fixed by replacing media with 150 μL of 10% TCA and incubated at 4 °C for 1 h. The TCA solution was removed, and the cells were washed 5 times with distilled water. Aliquots of 70 μL SRB solution (0.4% w/v) were added and incubated in a dark place at room temperature for 10 min. The plates were washed 3 times with 1% acetic acid and allowed to air-dry overnight. Then, 150 μL of TRIS (10 mM) was added to dissolve protein-bound SRB stain. The absorbance was measured at 540 nm.% Cytotoxicity = [1 − (AVx/AVNC)] × 100where AVx denotes the average absorbance of the sample well and AVNC denotes the average absorbance of the negative control.
The methodology of the NCI anticancer screening has been described in details at (http://www.dtp.nci.nih.gov). The anticancer assay was performed in full NCI 60 cell lines derived from nine tumor subpanels, including leukemia, lung, colon, CNS, melanoma, ovarian, renal, prostate, and breast cancer cell lines.
The cell lines were first cultured for 48 h, after being exposed to a single dosage of the compound. Using the protein-binding dye sulforhodamine B dye, cell proliferation and viability were evaluated (SRB assay). The results were presented for each chemical as GI%. Compound that met NCI criteria for substantial activity were further evaluated using a five-dose experiment. The NCI60 cell lines were treated with the chemicals in this assay at five different concentration levels (0.01, 0.1, 1, 10, and 100 μM).

COLO 205 (colon cancer) = settings: Homo sapiens; COLO 205, single dose 10 μM; read-out: growth inhibition (GI%)
SR (leukemia) = settings: single dose 10 μM; for inhibition at 10 µM: read-out: growth inhibition (GI%)
DU-145 (prostate cancer) = settings: Homo sapiens; DU-145, single dose 10 μM; read-out: growth inhibition (GI%)
SW-620 (colon cancer) = settings: Homo sapiens; SW-620, single dose 10 μM; read-out: growth inhibition (GI%)
OVCAR-3 (ovarian cancer) = settings: Homo sapiens; OVCAR-3, single dose 10 μM; read-out: growth inhibition (GI%)
[3] = system: NCI-H322M (non-small cell lung cancer); settings: Homo sapiens, single dose 10 μM, read-out: growth inhibition (GI%)
SK-MEL-5 (melanoma) = settings: Homo sapiens; SK-MEL-5, single dose 10 μM; read-out: growth inhibition (GI%)
MDA-MB-435 (melanoma) = settings: Homo sapiens, MDA-MB-435, read-out: growth inhibition (GI%)
M14 (melanoma) = settings: Homo sapiens; M14, single dose 10 μM; read-out: growth inhibition (GI%)
LOX IMVI (melanoma) = settings: Homo sapiens, single dose 10 μM, read-out: growth inhibition (GI%)

Row | Compound | inhibition at 10 µM (OVCAR-5 (ovarian cancer)) | inhibition at 10 µM (TK-10 (renal cancer)) | inhibition at 10 µM (RXF 393 (renal cancer)) | inhibition at 10 µM (OVCAR-4 (ovarian cancer)) | inhibition at 10 µM (SN12C (renal cancer)) | inhibition at 10 µM (CAKI-1 (renal cancer)) | inhibition at 10 µM [1] | inhibition at 10 µM (HCC-2998 (colon cancer)) | inhibition at 10 µM (SF-268 (CNS cancer)) | inhibition at 10 µM (HCT-116 (colon cancer)) | inhibition at 10 µM (U251 (CNS cancer)) | inhibition at 10 µM (SNB-19 (CNS cancer)) | inhibition at 10 µM (SK-MEL-2 (melanoma)) | inhibition at 10 µM [2] | inhibition at 10 µM (COLO 205 (colon cancer)) | inhibition at 10 µM (DU-145 (prostate cancer)) | inhibition at 10 µM (SW-620 (colon cancer)) | inhibition at 10 µM (OVCAR-3 (ovarian cancer)) | inhibition at 10 µM [3] | inhibition at 10 µM (SK-MEL-5 (melanoma)) | further results
1 | CCc1cccc2cc(C=CC(=O)c3ccc(OC)c(OC)c3)c(Cl)nc12 [Compound 3b, 3-(2-Chloro-8-ethylquinolin-3-yl)-1-(3,4-dimethoxyphenyl)prop-2-en-1-one] | 12.5% | < 10% | 22.1% | 42.3% | 23.7% | 40.2% | 27.4% | 17.7% | < 10% | 62.8% | 65.2% | 54.4% | < 10% | 39.8% | 22.4% | 15.8% | 72.2% | 31.7% | 22.4% | 23.2% | growth inhibition (GI%) (SR (leukemia)): 80.06%; inhibition at 10 µM (SR (leukemia)): 80.1%; inhibition at 10 µM (MDA-MB-435 (melanoma)): 17.1%; inhibition at 10 µM (M14 (melanoma)): < 10%; inhibition at 10 µM (LOX IMVI (melanoma)): 43.4%
2 | CCc1cccc2cc(-c3cc(-c4cc(OC)c(OC)c(OC)c4)[nH]c(=S)c3C#N)c(Cl)nc12 [Compound 5c, 4-(2-Chloro-8-ethylquinolin-3-yl)-2-thioxo-6-(3,4,5-trimethoxyphenyl)-1,2-dihydropyridine-3-carbonitrile] | < 10% | < 10% | 37.3% | 41.6% | 39.7% | 69.8% | 77.4% | 33% | 31.7% | 27.1% | 31% | 39.1% | 33% | 50.5% | 12.7% | 32.3% | 10% | 16.9% | 34% | 52.2% | inhibition at 10 µM (SR (leukemia)): 49%; inhibition at 10 µM (MDA-MB-435 (melanoma)): 24.9%; inhibition at 10 µM (M14 (melanoma)): 31.2%; inhibition at 10 µM (LOX IMVI (melanoma)): 38.3%
3 | CCc1cccc2cc(C=CC(=O)c3cc(OC)c(OC)c(OC)c3)c(Cl)nc12 [Compound 3c, 3-(2-Chloro-8-ethylquinolin-3-yl)-1-(3,4,5-trimethoxyphenyl)prop-2-en-1-one] | 26.8% | < 10% | 42.6% | 42% | 42.3% | 38.7% | 26.8% | 63.8% | 32.2% | 61.6% | 78.2% | 66.4% | 44.5% | 61.1% | 18.4% | 29% | 65.4% | > 100% | 31.1% | 39.9% | inhibition at 10 µM (SR (leukemia)): 61.5%; inhibition at 10 µM (MDA-MB-435 (melanoma)): 59.2%; inhibition at 10 µM (M14 (melanoma)): 31.9%; inhibition at 10 µM (LOX IMVI (melanoma)): 72%
4 | CCc1cccc2cc(-c3cc(-c4ccc(OC)cc4)[nH]c(=O)c3C#N)c(Cl)nc12 [Compound 4a, 4-(2-Chloro-8-ethylquinolin-3-yl)-6-(4-methoxyphenyl)-2-oxo-1,2-dihydropyridine-3-carbonitrile] | < 10% | < 10% | < 10% | 21.9% | < 10% | 34.9% | 29.8% | < 10% | 21.4% | < 10% | < 10% | < 10% | < 10% | 14% | < 10% | < 10% | < 10% | < 10% | < 10% | 13.9% | inhibition at 10 µM (SR (leukemia)): < 10%; inhibition at 10 µM (MDA-MB-435 (melanoma)): < 10%; inhibition at 10 µM (M14 (melanoma)): < 10%; inhibition at 10 µM (LOX IMVI (melanoma)): < 10%
5 | CCc1cccc2cc(C3C=C(c4ccc(OC)c(OC)c4)NC(=S)N3)c(Cl)nc12 (centres unmarked) [Compound 6b, 4-(2-Chloro-8-ethylquinolin-3-yl)-6-(3,4-dimethoxyphenyl)-3,4-dihydropyrimidine-2(1H)-thione] | < 10% | < 10% | < 10% | 19.9% | < 10% | 30.2% | < 10% | < 10% | 16.6% | 17.2% | < 10% | < 10% | < 10% | 13.2% | < 10% | < 10% | < 10% | < 10% | < 10% | 14.1% | inhibition at 10 µM (MDA-MB-435 (melanoma)): < 10%; inhibition at 10 µM (M14 (melanoma)): < 10%; inhibition at 10 µM (LOX IMVI (melanoma)): < 10%
6 | CCc1cccc2cc(C3C=C(c4cc(OC)c(OC)c(OC)c4)NC(=S)N3)c(Cl)nc12 (centres unmarked) [Compound 6c, 4-(2-Chloro-8-ethylquinolin-3-yl)-6-(3,4,5-trimethoxyphenyl)-3,4-dihydropyrimidine-2(1H)-thione] | < 10% | 12.6% | 40.6% | 48.9% | 21.7% | 64.1% | 28.3% | 26.1% | 42.4% | 41.2% | 26.6% | 23.4% | 10.2% | 40.5% | 24.4% | 21.7% | 13.4% | 14.2% | 18.3% | 38.2% | inhibition at 10 µM (MDA-MB-435 (melanoma)): 43.5%; inhibition at 10 µM (M14 (melanoma)): 30.1%; inhibition at 10 µM (LOX IMVI (melanoma)): 33.3%
